Experimental data from ChEMBL document CHEMBL3886492, “Aminopyrimidinones as interleukin receptor-associated kinase inhibitors” (2015).

Target: T1, Interleukin-1 receptor-associated kinase 4 (Homo sapiens, UniProt Q9NWZ3)
T1 sequence (Q9NWZ3 whole entry): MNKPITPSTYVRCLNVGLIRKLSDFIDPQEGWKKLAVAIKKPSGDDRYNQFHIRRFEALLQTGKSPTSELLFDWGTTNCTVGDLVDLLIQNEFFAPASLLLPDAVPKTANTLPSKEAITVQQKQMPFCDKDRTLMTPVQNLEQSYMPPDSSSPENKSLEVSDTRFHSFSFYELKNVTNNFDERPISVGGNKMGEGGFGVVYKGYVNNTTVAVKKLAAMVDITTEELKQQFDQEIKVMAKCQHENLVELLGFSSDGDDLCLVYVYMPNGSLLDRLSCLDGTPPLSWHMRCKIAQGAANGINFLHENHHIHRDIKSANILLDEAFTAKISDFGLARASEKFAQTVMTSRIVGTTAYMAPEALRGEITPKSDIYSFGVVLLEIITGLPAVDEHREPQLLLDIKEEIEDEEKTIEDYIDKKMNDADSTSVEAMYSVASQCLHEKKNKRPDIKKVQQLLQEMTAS
Experiment: IMAP technology (Molecular Devices): A 20 ul reaction mixture contains 10 mM TriHCl, pH 7.2, 0.5 nM GST tagged IRAK4 (SignalChem), 100 nM fluorescent peptide substrate (RP7030, Molecular Devices), 100 uM ATP, 1 mM DTT, 1 mM MgCl2, and 0.01% Tween 20. The reaction is initiated by the addition of ATP. After incubation for 30 minutes at 25° C., 60 ul of Progressive IMAP Reagent (Molecular Devices) is added to stop the reaction. Change in RP7030's FP is determined by a FP reader (Analyst HT, LJL BioSystems).

Structure (SMILES) | IC50
CC1(Nc2nc(N3CCOCC3)[nH]c(=O)c2-c2ccc3ccccc3n2)CCCNC1 (stereo unspecified) | 0.13 µM
COC(=O)N1CCC(c2nc(N[C@@H]3CCCNC3)c(-c3nc4ccccc4s3)c(=O)[nH]2)CC1 | 0.27 µM
O=c1[nH]c(N2CCc3ccccc3C2)nc(N[C@@H]2CCCNC2)c1-c1nc(-c2ccc(F)cc2)cs1 | 0.057 µM
Cc1csc(-c2c(N[C@@H]3CCCNC3)nc(N3CCOCC3)[nH]c2=O)n1 | 0.554 µM
CN1CCC(c2nc(N[C@@H]3CCCNC3)c(-c3nc4ccccc4s3)c(=O)[nH]2)CC1 | 0.69 µM
CC1(Nc2nc(N[C@@H]3C[C@H](CO)[C@@H](O)[C@H]3O)c(-c3nc4ccccc4s3)c(=O)[nH]2)CCC1 | 1.69 µM
Cc1cccc(-c2c(N[C@@H]3C[C@H](CO)[C@@H](O)[C@H]3O)nc(N3CCOCC3)[nH]c2=O)n1 | 0.214 µM
O=c1[nH]c(C2CCOCC2)nc(N[C@@H]2CCCNC2)c1-c1nc2ccccc2s1 | 0.38 µM
CC(=O)N1CCC(c2nc(N[C@@H]3CCCNC3)c(-c3nc4ccccc4s3)c(=O)[nH]2)CC1 | 0.45 µM
N[C@H]1CCCC[C@H]1Nc1cccc2sc(-c3c(N[C@@H]4CCCNC4)nc(N4CCOCC4)[nH]c3=O)nc12 (racemic) | 0.07 µM

Compounds with a lower IC50, results first:

IC50 | Structure (SMILES)
0.0275 µM | O=c1[nH]c(N2CCc3ccccc3C2)nc(N[C@@H]2C[C@H](CO)[C@@H](O)[C@H]2O)c1-c1nc2ccccc2s1
0.049 µM | Nc1ccc2c(c1)CN(c1nc(N[C@@H]3CCCNC3)c(-c3nc4ccccc4s3)c(=O)[nH]1)CC2
0.0069 µM | CS(=O)(=O)N1CCN(c2nc(N[C@@H]3CCCNC3)c(-c3nc4c(C5CC5)nccc4s3)c(=O)[nH]2)CC1
0.027 µM | CC(C)(C)OC(=O)N1CC2(CCN(c3nc(N[C@@H]4CCCNC4)c(-c4nc5ccccc5s4)c(=O)[nH]3)CC2)C1
0.002 µM | N[C@H]1CCCC[C@H]1Nc1cccc2sc(-c3c(N[C@@H]4CCCNC4)nc(N4CCOCC4)[nH]c3=O)nc12
0.04 µM | O=c1[nH]c(N2CCC3(CC2)CNC3)nc(N[C@@H]2CCCNC2)c1-c1nc2ccccc2s1
